Assay results: PubChem BioAssay AID2061108 (Research group of Professor Matthew Todd, School of …, 2025)
Activity calls are given as the source filed them. The rule behind the calls is not given here.

Tests used:
Test in all cases: antibacterial and antifungal growth inhibition panel, profiling panel, Idler compounds, first plate, PMBN-permeabilized strains (AID 2061108)
Design in all cases: haemolysis: dose or concentration left out as unconfirmed
[1] = system: A. baumannii ATCC 17978 + PMBN growth inhibition, 100 uM; conditions: A. baumannii plus PMBN growth inhibition, 100 µM; stronger effect = higher value
[2] = system: A. baumannii ATCC 17978 growth inhibition, 100 uM; conditions: S. aureus ATCC 9144 growth inhibition; measured here: A. baumannii ATCC 17978; at 100 µM; stronger effect = higher value
[3] = system: C. albicans NCPF 3281 growth inhibition, 100 uM; conditions: S. aureus ATCC 9144 growth inhibition; measured here: C. albicans NCPF 3281; at 100 µM; stronger effect = higher value
[4] = system: E. coli NCTC 12923 + PMBN growth inhibition, 100 uM; conditions: S. aureus ATCC 9144 growth inhibition; measured here: E. coli plus PMBN; at 100 µM; stronger effect = higher value
[5] = system: E. coli NCTC 12923 growth inhibition, 100 uM; conditions: E. coli NCTC 12923 growth inhibition, 100 µM; stronger effect = higher value
[6] = system: M. abscessus growth inhibition, 10 uM; conditions: S. aureus ATCC 9144 growth inhibition; measured here: M. abscessus; at 10 µM
[7] = system: M. avium growth inhibition, 10 uM; conditions: M. avium growth inhibition, 10 µM
[8] = system: S. aureus ATCC 9144 growth inhibition, 100 uM; conditions: S. aureus ATCC 9144 growth inhibition; at 100 µM; stronger effect = higher value
[9] = system: red blood cell haemolysis; conditions: stronger effect = higher value; dose or concentration not given here

| Structure (SMILES) | inhibition [1] [%] | inhibition [2] [%] | inhibition [3] [%] | inhibition [4] [%] | inhibition [5] [%] | inhibition [6] [%] | inhibition [7] [%] | inhibition [8] | haemolysis [9] [%] |
| --- | --- | --- | --- | --- | --- | --- | --- | --- | --- |
| O=C(N1CCCCC1)N1CCCCC1Cc1ccccc1 (configuration not stated) | 16.8 | -2.26 | -79.6 | 18.1 | -3.65 | -0.54 | 0.89 | 7% (inactive) | -0.191 |
| CCCOc1cc(S(=O)(=O)n2cccn2)ccc1Br | 18.4 | -7.35 | -62.6 | -8.29 | -38.1 | -0.42 | -1.53 | -33.2% (inactive) | 0.858 |
| O=C(Nc1ccc(Oc2ccccc2)cc1)c1cccc(-c2nn[nH]n2)c1 | 18.8 | -3.57 | -19 | 5.93 | -9.59 | -0.704 | 0.254 | 9.5% (inactive) | 1.82 |
| Cc1cccc(C)c1OCC(O)CSc1ccccn1 (configuration not stated) | 51.9 | 11.9 | -34.4 | 59.6 | -44.2 | -0.104 | -0.789 | -7.89% (inactive) | 0.214 |
| Cc1ncsc1CCCN(C)c1cnc(S(=O)(=O)F)c(Br)c1 | 21.9 | -2.86 | -94.3 | 0.37 | 1.49 | -0.937 | 0.0507 | 16.7% (inactive) | 0.616 |
| CC1=CC(=O)C=C(C)C1=NOS(=O)(=O)c1ccc(Cl)cc1 | -8.84 | -15.4 | -1.74 | -20.5 | -42.6 | -0.716 | -0.499 | 98.2% | 0.0834 |
| C=CCSc1nc2c(c(=O)[nH]1)C(c1ccc(N(C)C)cc1)C1=C(CCCC1=O)N2 (configuration not stated) | 1.16 | 1.79 | 15.9 | -12.3 | -40 | -0.888 | 0.543 | -16.3% (inactive) | -0.046 |
| COc1ccc(-c2nc(N3CCC(N(C)C)C3)c3cc(OC)c(OC)cc3n2)cc1 (configuration not stated) | 39.9 | -3.73 | 2.3 | -11 | 6.35 | 0.735 | 3.41 | 10.4% (inactive) | 0.312 |
| FC(F)Oc1ccc(-c2nnc3cncc(OCCCC(F)(F)F)n23)cc1 | 4.86 | -14.8 | -49.2 | -9.02 | -7.16 | -0.237 | -0.289 | -9.47% (inactive) | 0.0506 |
| COc1cc2nc(Nc3cc(C)[nH]n3)nc(N3CC(N(C)C)C3)c2cc1OC | 17.5 | 3.33 | 13.3 | -10.1 | 5.14 | -0.369 | 1.81 | 33% (inactive) | 0.198 |
| O=C(Nc1ccccc1)C(Cl)C(=O)c1ccccc1 (configuration not stated) | 98.6 | 37.9 | 101 | 61.4 | 20.3 | -1.14 | 1.66 | 100% | -0.111 |
| O=C(N/N=C/c1cnc(C(F)(F)F)nc1)c1ccncc1 | 21.6 | 10.4 | 17 | 11.2 | -2.16 | 0.125 | 1.52 | 16.7% (inactive) | 0.15 |
| NC(=O)C1CCN(c2nc(OCc3ccc(F)nc3)nc(N3CCCOCC3)n2)CC1 | 9.86 | -0.843 | -78.3 | -2.07 | -2.97 | -0.107 | 0.922 | 18.4% (inactive) | 1.34 |
| Nc1ncnc2cc(-c3cccc(S(=O)(=O)NC(=O)C4CCCN4)c3)sc12 (configuration not stated) | -10.6 | -13 | -16.7 | -40.7 | -67.2 | -0.89 | 5.56 | 48.7% (inactive) | 0.251 |
| COc1cc2nc(Nc3cc(C)[nH]n3)nc(Nc3cc(C)[nH]n3)c2cc1OC | 19.6 | 18.8 | 84.2 | 49.1 | 12.7 | 0.769 | 1.15 | 37.5% | 0.208 |
| O=C(NC1(c2ccc(Br)cc2)COC1)c1ccc(N2CCOCC2)cc1 | 17.5 | 1.43 | -56.4 | 4.32 | -5.27 | -1 | -0.734 | 5.33% (inactive) | 0.177 |
| Nc1ncc(/C=N/NC(=O)c2ccncc2)cn1 | 11.3 | -1.43 | 3.92 | -2.1 | -0.946 | -0.71 | 0.0378 | 19.2% (inactive) | -0.164 |
| CC(N)C(=O)NS(=O)(=O)c1cccc(-c2cc3ncnc(N)c3s2)c1 (configuration not stated) | -25.6 | -14.5 | -29.6 | -31.8 | -32.4 | -0.285 | 45.2 | -35.4% (inactive) | 0.129 |
| O=C(N/N=C/C1CCOCC1)c1ccncc1 | 13.2 | 0.357 | -26.5 | 1.11 | -1.62 | -2.72 | 4.75 | 16% (inactive) | 1.63 |
| O=S(=O)(Nc1ccc(Oc2ccccc2)cc1)c1cccc(C(F)(F)F)c1 | 67.9 | 59.2 | 25.3 | 90 | -5.41 | -0.452 | 0.528 | 81.9% | 1.23 |
| O=C(c1ccccc1)c1ccc(NS(=O)(=O)c2cccc(Cl)c2)cc1 | 80.1 | 15.2 | -41.2 | 86.3 | 4.05 | -0.368 | 0.0647 | 64.6% | 0.625 |
| O=C(Nc1nnc2ccccn12)c1ccc2cccc(Cl)c2n1 | -14.2 | -14.5 | 25.9 | -43.8 | -51.6 | -0.577 | -0.879 | -41.5% (inactive) | 2.79 |
| Oc1ccc(CN2CCN(c3ccccc3F)CC2)c2cccnc12 | 18.1 | 14.6 | 95.2 | 6.46 | -2.43 | 0.148 | -0.052 | 6.49% | 1.25 |
| Nc1ncnc2cc(-c3cccc(S(N)(=O)=O)c3)sc12 | -11.6 | -9.52 | -67.9 | 91.6 | 1.22 | 0.72 | 50.5 | 27.3% | -0.345 |
| COC(COc1cncc2nnc(-c3ccc(OC(F)F)cc3)n12)c1ccccc1 (configuration not stated) | -15.5 | -16.4 | -17.3 | -28.1 | -38.8 | -0.536 | -0.713 | -22.8% (inactive) | -0.0885 |
| N#Cc1ccc(NC2Cc3cccc(O)c3C2)cc1Cl (configuration not stated) | 101 | 65.2 | 100 | 101 | 25 | -0.909 | 0.34 | 100% | 0.539 |
| Cc1ccn2c(=O)nc(SCC(=O)OCc3ccccc3)nc2c1 | 5.22 | 0.238 | -102 | -29.4 | -34.5 | -0.803 | -0.191 | 7% (inactive) | -0.0134 |
| COc1cc2nc(Nc3cc(C)[nH]n3)nc(NC3CCN(C(=O)OC(C)(C)C)CC3)c2cc1OC | 70.4 | 48.6 | -108 | 78.8 | 14.5 | 0.14 | 3.94 | 99.8% | 2.1 |
